Consider 6 compounds from patent US12102648B2, “Orally-bioavailable nucleoside analogs” (priority 2021, dated 2024).

For data set [1] the following is noted: rats; cited from earlier work.
For data set [2] the following is noted: cited from earlier work.
The next data set has as its system Caco-2 cell monolayer. As to the kind of experiment: in vitro. The format is in vitro ADME. The following applies: human, Caco-2, 90 min. The gist of the method:
(§1)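 Caco-2 monolayers cultured 19 days on inserts (TEER >600 […]); bidirectional A-to-B and B-to-A transport at 37° C over 90 min, samples quantified by LC/MS/MS. Papp, efflux ratio and recovery calculated; ER >2 flags potential efflux substrates.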

A further data set can be described thus: in vitro. The data set is classed as in vitro ADME. The note with it: human. The gist of the method: as §1

Like-named read-outs stand apart in the source and are kept apart here.

On to `N#C[C@@]1(c2ccc3c(N)ncnn23)O[C@H](CO)[C@@H](O)[C@H]1O` [GS-441524], for which the “% F (oral bioavailability)” value in data set [1] is recorded as 4.8%. In data set [2] (plasma, following IV administration), the T½ in plasma result is recorded as “about 24.5 hr”.

With `N#C[C@@]1(c2ccc3c(NC(=O)[C@@H](N)Cc4ccc(F)cc4)ncnn23)O[C@H](CO)[C@@H](O)[C@H]1O` [Compound 84, (S)-2-amino-N-(7-((2R,3R,4S,5R)-2-cyano-3,4-dihydroxy-5-(hydroxymethyl)tetrahydrofuran-2-yl)pyrrolo[2,1-f][1,2,4]triazin-4-yl)-3-(4-fluorophenyl)propenamide], in the data set on Caco-2 cell monolayer, the “Papp, A-B” value turned out to be 0 ×10⁻⁶ cm/s and the “Papp, B-A” value was 0 ×10⁻⁶ cm/s.

With `CCC(CC)COC(=O)[C@H](C)N[P@](=O)(OC[C@H]1O[C@@](C#N)(c2ccc3c(N)ncnn23)[C@H](O)[C@@H]1O)Oc1ccccc1` [remdesivir, Remdesivir], the “T1/2 (hydrolysis by esterases)” value in data set [2] (in vivo, iv) is given as “about 1 hr”.

Consider `N#C[C@@]1(c2ccc3c(N)ncnn23)O[C@H](COC(=O)CC2(c3ccccc3)CCOCC2)[C@@H](O)[C@H]1O` [Compound 274, ((2R,3S,4R,5R)-5-(4-aminopyrrolo[2,1-f][1,2,4]triazin-7-yl)-5-cyano-3,4-dihydroxytetrahydrofuran-2-yl)methyl 2-(4-phenyltetrahydro-2H-pyran-4-yl)acetate], for which, in “in vitro” (Caco-2), the apical-to-basolateral permeability (Papp A→B) – broadly, how fast a substance crosses the layer from the apical side – at 90 min was 0.85 ×10⁻⁶ cm/s; the Papp B→A (usually the apparent permeability from the basolateral to the apical side of a cell layer) at 90 min worked out at 12 ×10⁻⁶ cm/s; the efflux ratio at 90 min was 14.

For the compound `CC(C)C(=O)Nc1ncnn2c([C@]3(C#N)O[C@H](COC(=O)Cc4ccccc4)[C@@H](OC(=O)[C@@H](N)C(C)C)[C@H]3O)ccc12` [Compound 347, (2R,3S,4R,5R)-5-cyano-4-hydroxy-5-(4-isobutyramidopyrrolo[2,1-f][1,2,4]triazin-7-yl)-2-((2-phenylacetoxy)methyl)tetrahydrofuran-3-yl L-valinate], the Papp A→B at 90 min in “in vitro” (Caco-2 monolayer, apical to basolateral, 90-minute incubation, read-out: Papp, A-B) is 7 ×10⁻⁶ cm/s. In addition, the Papp B→A at 90 min in the data set “in vitro” (Caco-2 monolayer, basolateral to apical, 90-minute incubation, read-out: Papp, B-A) was found to be 17 ×10⁻⁶ cm/s. Moreover, the efflux ratio at 90 min in “in vitro” (Caco-2 monolayer, ER>2 indicates potential efflux transporter substrate, read-out: ER (efflux ratio)) was 2.4.

Regarding `Cc1oc(=O)oc1COC(=O)Nc1ncnn2c([C@]3(C#N)O[C@H](COC(=O)CC4CCCCC4)[C@@H](OC(=O)[C@@H](N)C(C)C)[C@H]3O)ccc12` [Compound 385, (2R,3S,4R,5R)-5-cyano-2-((2-cyclohexylacetoxy)methyl)-4-hydroxy-5-(4-((((5-methyl-2-oxo-1,3-dioxol-4-yl)methoxy)carbonyl)amino)pyrrolo[2,1-f][1,2,4]triazin-7-yl)tetrahydrofuran-3-yl L-valinate], in “in vitro” (Caco-2), the Papp A→B at 90 min is below 1 ×10⁻⁶ cm/s and the Papp B→A at 90 min was below 1 ×10⁻⁶ cm/s.
